Assays:
[1] = target: T1, human Kv72+3 channels (Homo sapiens, UniProt O43525+O43526); assay: patch-clamp, HEK293 cell lines stably expressing the human Kv72+3 channels; type: cell-based; conditions: 3 μM, HEK293 cells stably expressing human Kv72+3 channels
T1 construct: expressed in transfected cells

Row | Compound | melting point | activation compared to control [1]
1 | CCc1nc2cc(F)ccc2c(=O)n1NC(=O)C(C)c1ccccc1 (centres unmarked) [Compound A1, N-(2-Ethyl-7-fluoro-4-oxo-4H-quinazolin-3-yl)-2-phenyl-propionamide] | 57 to 63 °C | 
2 | CC(C)c1nc2ccccc2c(=O)n1NC(=O)C(c1ccccc1)C(C)C (centres unmarked) [Compound B2, N-(2-Isopropyl-4-oxo-4H-quinazolin-3-yl)-3-methyl-2-phenyl-butyramide] | 188 to 193 °C | 
3 | CC(C)c1nc2ccccc2c(=O)n1NC(=O)C(C)c1cccc(F)c1 (centres unmarked) [Compound B16, 2-(3-Fluoro-phenyl)-N-(2-isopropyl-4-oxo-4H-quinazolin-3-yl)-propionamide] |  | 60%
4 | COc1ccc(C(C)C(=O)Nn2c(C(C)C)nc3cc(C(F)(F)F)ccc3c2=O)cc1 (centres unmarked) [Compound B20, N-(2-Isopropyl-4-oxo-7-trifluoromethyl-4H-quinazolin-3-yl)-2-(4-methoxy-phenyl)-propionamide] |  | 87%
5 | CC(C)c1nc2ccccc2c(=O)n1NC(=O)C(C)c1ccccc1 (centres unmarked) [Compound B1, N-(2-Isopropyl-4-oxo-4H-quinazolin-3-yl)-2-phenyl-propionamide] | 48 to 55 °C | 
